Test results published in patent EP0369733A2, “Fluorescent indicator dyes for alkali metal cations, their preparation and use” (THE REGENTS OF THE UNIVERSITY OF CALIFORNIA, priority 1988, dated 1990).
“And” between values parts separate entries of the source, which are not always exact repeats. Equal values may be shown once.

Experiments:
[1] = Cation titration followed by absorbance or fluorescence excitation spectra: Na⁺ binding; details: for Kd: read-out: Dissociation constants (Kd) in mM for Na⁺
Experimental: (§1) • Footnote a: For molecular structures, see Fig. 1. • Footnote b: Except where otherwise noted, these dissociation constants were measured with the chelator dissolved in 0.1 M tetramethylammonium chloride, at a pH held high enough with 1-5 mM tris(hydroxymethyl)aminomethane for protonation to be insignificant. The absorbance spectrum, or the fluorescence excitation spectrum for those compounds (2GG, 2NN, 2OO, 2PP, 3NN) with acronyms was measured as a function of the concentration of cation added as a solid or concentrated aqueous solution of the halide salt. No correction has been made for the changing ionic strength of the solution, which started from 0.1 M and increased, but the absorbances and fluorescence amplitudes were applied for dilution of the dye and any slight quenching due to high concentrations of Cl⁻. • Footnote c: These protonation constants were determined in 0.1 M tetramethylammonium chloride, 10 mM tris(hydroxymethyl)aminomethane, titrated with 5 M H₃PO₄ to successively lower pH values measured with a Radiometer PHM84 meter. […] The first number is the wavelength in nanometers, followed in parentheses by 10⁻³ x the corresponding extinction coefficient, M⁻¹cm⁻¹. […] Emission maxima are not corrected for the spectral sensitivity of the emission detection. Quantum efficiencies were measured (13) by comparing the integral of the corrected emission spectrum with the corresponding integral for a solution of quinine bisulfate in 1 N H₂SO₄ of matched absorbance at the excitation wavelength.
(§2) Affinities for other cations were usually measured by titrating aqueous solutions of the indicator with metal chlorides added either as solid or from concentrated stock solutions, taking care to minimize dilution and correct for it. A convenient way to mass-produce premeasured micromole to millimole aliquots of solid NaCl or KCl was to pipet saline solutions into polypropylene micro test tubes and evaporate the water in an oven. The standard ionic background was again 100 mM tetramethylammonium chloride, usually with a few mM of tris(hydroxymethyl)-aminomethane base to hold the pH high enough (pH 8-9) to insure that protonation was negligible. This convenient titration procedure had the slight disadvantage that the ionic strength was not constant, especially when large quantities of a salt had to be added due to weak affinities. […] When constant ionic strength was desired, the chelator was made up at identical concentrations in matched solutions of NaCl, KCl, or tetramethylammonium chloride, then these stocks were mixed in the desired proportions. All measurements were made at room temperature (22°, ±2° C).

[2] = UV absorbance spectra without and with saturating cation; assay type: physicochemical; details: for Absorbance maxima -Na⁺ (wavelength): 100 mM tetramethylammonium chloride plus 1-5 mM Tris; for Absorbance maxima -Na⁺ (wavelength) / Absorbance maxima -Na⁺ (extinction coefficient): no Na⁺; for Absorbance maxima +Na⁺ (wavelength): enough NaCl added (0.2-1 M) to saturate the Na⁺ binding; for Absorbance maxima -Na⁺ (extinction coefficient) / Absorbance maxima +Na⁺ (extinction coefficient): number is 10⁻³ x the extinction coefficient; for Absorbance maxima -Na⁺ (extinction coefficient): lower limits for most compounds; for Absorbance maxima +Na⁺ (extinction coefficient): lower limits, saturating NaCl (0.2-1 M)
Experimental: as §1
(§3) UV absorbance spectra were recorded initially on a Cary 210 and later on a Perkin-Elmer Lambda Array 3840 spectrophotometer. Fluorescence excitation and emission spectra and quantum efficiencies were measured on a Spex Fluorolog 111 as described previously (13).

physchem = details: 0.1 m tetramethylammonium chloride
Experimental: (§4) • Footnote a: For molecular structures, see Fig. 1. • Footnote b: Except where otherwise noted, these dissociation constants were measured with the chelator dissolved in 0.1 M tetramethylammonium chloride, at a pH held high enough with 1-5 mM tris(hydroxymethyl)aminomethane for protonation to be insignificant. […] No correction has been made for the changing ionic strength of the solution, which started from 0.1 M and increased, but the absorbances and fluorescence amplitudes were applied for dilution of the dye and any slight quenching due to high concentrations of Cl⁻. • Footnote c: These protonation constants were determined in 0.1 M tetramethylammonium chloride, 10 mM tris(hydroxymethyl)aminomethane, titrated with 5 M H₃PO₄ to successively lower pH values measured with a Radiometer PHM84 meter.
(§5) Proton dissociation constants of the chelators were measured by spectrophotometry or spectrofluorometry of buffered solutions, containing either 100 mM tetramethylammonium chloride as inert supporting electrolyte, or 121.5 mM K⁺, 13.5 mM Na⁺, and 1 mM Mg²⁺ to simulate the cation environment of vertebrate cytoplasm (14). Traces of UV-absorbing impurities in the tetramethylammonium chloride (Alfa Inorganics) were removed by filtration through acid-­washed activated charcoal. The concentration of the tetramethylammonium chloride was then measured by chloride titration, and the absence of significant Na⁺ contamination was verified with a sodium-selective glass electrode (Microelectrodes Inc.). When the chelators contained two protonatable nitrogens, the curve of absorbance or fluorescence versus pH was analyzed by computerized least-squares fitting to the equations for two arbitrary proton equilibria (15), with the added assumption that the two protonations each caused the same change in extinction coefficient or fluorescence.

[3] = Cation titration followed by absorbance or fluorescence excitation spectra: Mg²⁺ binding; details: read-out: Dissociation constants (Kd) in mM for Mg²⁺
Experimental: as §1
as §2, with “proportions.” for “proportions. All measurements were made at room temperature (22°, ±2° C).”

[4] = Cation titration followed by absorbance or fluorescence excitation spectra: Ca²⁺ binding; details: 0.1 M tetramethylammonium chloride, 1-5 mM tris(hydroxymethyl)aminomethane, high pH; read-out: Dissociation constants (Kd) in mM for Ca²⁺
Experimental: as §1, §2

[5] = Cation titration followed by absorbance or fluorescence excitation spectra: Li⁺ binding; details: for Kd: 0.1 M tetramethylammonium chloride, 1-5 mM tris(hydroxymethyl)aminomethane, high pH, read-out: Dissociation constants (Kd) in mM for Li⁺
Experimental: as §1, §2

[6] = Proton dissociation constants in 0.1 M tetramethylammonium chloride; details: second value (second protonation), 10 mM Tris titrated with 5 M H₃PO₄
Experimental: as §4, §5

[7] = Fluorescence excitation/emission spectra and quantum efficiency; assay type: physicochemical; details: for Emission maxima -Na⁺: 100 mM tetramethylammonium chloride; for Emission maxima -Na⁺ / Quantum efficiency -Na⁺: no Na⁺; for Emission maxima -Na⁺ / Emission maxima +Na⁺: not corrected for detector sensitivity; for Quantum efficiency -Na⁺ / Quantum efficiency +Na⁺: relative to quinine bisulfate in 1 N H₂SO₄ (0.55); for Emission maxima +Na⁺: saturating NaCl; for Quantum efficiency +Na⁺: saturating Na⁺; for fluorescence quantum yield: ±Na⁺ not specified
Experimental: as §1, §3

[8] = 0.1 M tetramethylammonium chloride, 1-5 mM tris(hydroxymethyl)aminomethane, pH high enough for protonation to be insignificant, 22°
[9] = association constant, inert background cation (tetramethylammonium)
[10] = 0.1 M tetramethylammonium chloride, 1-5 mM tris(hydroxymethyl)aminomethane, high pH
[11] = footnote h: 3.0 M ionic strength (3.0 M NaCl mixed with 3.0 M tetramethylammonium chloride)

Kd [1, 8] [mM]	Na⁺ affinity [1, 9] [M⁻¹]	Absorbance maxima -Na⁺ (wavelength) [2]	Absorbance maxima +Na⁺ (wavelength) [2]	Absorbance maxima -Na⁺ (extinction coefficient) [2] [M⁻¹ cm⁻¹]	Absorbance maxima +Na⁺ (extinction coefficient) [2]	pKa (physchem)	Kd [4] [mM]	Kd [5] [mM]	Kd [1, 11] [mM]	pKa [6]	Emission maxima -Na⁺ [7] [nanometers]	Quantum efficiency -Na⁺ [7]	Emission maxima +Na⁺ [7] [nanometers]	Quantum efficiency +Na⁺ [7]	SMILES	also measured
71	14	295 nanometers	296 nanometers	1100	1100 M⁻¹ cm⁻¹	9.21									Nc1ccc(N2CCOCCOCCOCCOCC2)c(C(=O)O)c1 [Compound 1B, N-(4-amino-2-carboxyphenyl)-aza[15]-crown-5]	
67	15	349 nanometers and 252 nanometers	304 nanometers and 229 nanometers			< 7	10	63							CC(=O)Nc1ccc(N2CCOCCOCCOCCOCC2)c2ncccc12 [Compound 1C, N-(5-acetamido-8-quinolinyl)-aza[15]-crown-5]	Kd [3, 10]: 12 mM
5.3		346 nanometers and 250 nanometers	304 nanometers and 230 nanometers			6.85	0.075	2.8	2.4	5.43					CC(=O)Nc1ccc(N2CCOCCOCCN(c3ccc(NC(C)=O)c4cccnc34)CCOCC2)c2ncccc12 [Compound 2CC, N,N-bis-(5-acetamido-8-quinolinyl)-diaza[15]-crown-5]	Na⁺ affinity ([1]; depending on ionic strength): 190 to 415 M⁻¹; Kd ([3]; footnote i: free [Mg²⁺] controlled by Mg²⁺-nitrilotriacetate buffers at pH 8.5): 0.078 mM; affinity for Li⁺ (in words) ([5]; compared with its Na⁺ affinity): comparable to that for Na⁺
9.4						7.55			4.4	5.62	525	.01	510	.01	CC(=O)Nc1ccc(N2CCOCCOCCN(c3ccc(NC(C)=O)c4ccc(C)nc34)CCOCC2)c2nc(C)ccc12 [Compound 2DD, N,N-bis-(5-acetamido-2-methyl-8-quinolinyl)-diaza[15]-crown-5]	Na⁺ affinity relative to 2CC ([1]; fraction of the affinity of 2CC retained): more than half; Absorbance maxima -Na⁺ (wavelength) ([2]; listed as 2DO): 344 nanometers and 256 nanometers; Absorbance maxima +Na⁺ (wavelength) ([2]; listed as 2DO): 306 nanometers and 237 nanometers; fluorescence quantum yield [7]: 0.01
8.9		363 nanometers	362 nanometers	2400	2300 M⁻¹ cm⁻¹						497		466		Cc1ccc2cc(O)cc(N3CCOCCOCCN(c4cc(O)cc5ccc(C)nc45)CCOCC3)c2n1 [Compound 2FF, N,N-bis-(6-hydroxy-2-methyl-8-quinolinyl)-diaza[15]-crown-5]	
4.7						7.9				6.8	486	.005	525	.01	Cc1ccc2c(n1)c(N1CCOCCOCCN(c3cc4oc(-c5ccc(C(=O)O)c(C(=O)O)c5)cc4c4ccc(C)nc34)CCOCC1)cc1oc(-c3ccc(C(=O)O)c(C(=O)O)c3)cc12 [Compound 2GG, N,N-bis(2-(3,4-dicarboxyphenyl)-7-methylfuro [3,2-f]quinolin-5-yl)-diaza[15]-crown-5]	Absorbance maxima -Na⁺ (wavelength) ([2]; listed as 2GG (SQFP)): 373 nanometers and 308 nanometers; Absorbance maxima +Na⁺ (wavelength) ([2]; listed as 2GG (SQFP)): 362 nanometers and 307 nanometers; Absorbance maxima -Na⁺ (extinction coefficient) ([2]; listed as 2GG (SQFP)): 24000 M⁻¹ cm⁻¹ and 22000 M⁻¹ cm⁻¹; Absorbance maxima +Na⁺ (extinction coefficient) ([2]; listed as 2GG (SQFP)): 31000 M⁻¹ cm⁻¹ and 28000 M⁻¹ cm⁻¹
12		261 nanometers	280 nanometers and 249 nanometers	10800	5400 M⁻¹ cm⁻¹ and 10700 M⁻¹ cm⁻¹	6.31	> 100	72		5.0					COc1cc(NC(C)=O)ccc1N1CCOCCOCCN(c2ccc(NC(C)=O)cc2OC)CCOCC1 [Compound 2JJ, N,N-bis-(4-acetamido-2-methoxyphenyl)-diaza[15]-crown-5]	Na⁺ affinity ([1]; at I = 0.15): 83 M⁻¹; Kd [3, 10]: > 100 mM
10 to 20		295 nanometers and 213 nanometers	291 nanometers		4000 M⁻¹ cm⁻¹										COc1ccc(OC)c(N2CCOCCOCCN(c3cc(OC)ccc3OC)CCOCC2)c1 [Compound 2LL, N,N-bis-(2,5-dimethoxyphenyl)-diaza[15]-crown-5]	

SMILES	Kd [1, 8] [mM]	Na⁺ affinity [1, 9] [M⁻¹]	Absorbance maxima -Na⁺ (wavelength) [2]	Absorbance maxima +Na⁺ (wavelength) [2]	Absorbance maxima -Na⁺ (extinction coefficient) [2] [M⁻¹ cm⁻¹]	Absorbance maxima +Na⁺ (extinction coefficient) [2]	pKa (physchem)	Kd [4] [mM]	Kd [5] [mM]	Kd [1, 11] [mM]	pKa [6]	Emission maxima -Na⁺ [7] [nanometers]	Quantum efficiency -Na⁺ [7]	Emission maxima +Na⁺ [7] [nanometers]	Quantum efficiency +Na⁺ [7]	also measured
O=C(O)CCC(=O)Nc1ccc(N2CCOCCOCCN(c3ccc(NC(=O)CCC(=O)O)c4cc5ccccc5nc34)CCOCC2)c2nc3ccccc3cc12 [Compound 2II, N,N-bis-(1-succinamidoacridin-4-yl)-diaza[15]-crown-5]	0.32	3125	414 nanometers and 359 nanometers and 244 nanometers	360 nanometers and 251 nanometers			8.19		11.5	0.4	6.86	480	<.001	625	<.001	Na⁺:K⁺ selectivity ([1]; ratio of Na⁺ to K⁺ affinity): > 500; fluorescence quantum yield [7]: very poor
